The results in this text go back to ChEMBL document CHEMBL2046283, “Iotrochamides A and B, antitrypanosomal compounds from the Australian marine sponge Iotrochota sp” (Bioorg Med Chem Lett, 2012).

The IC50 is the concentration needed to halve the response being measured. A low value points to higher potency.

A short description of series [1]: Growth inhibition of human HEK293 cells at 70 uM after 48 hrs by alamar blue assay relative to control. It counts as cell-based. As to conditions: read-out: GI. Background: The colour change of resazurin is a common sign of viable cells or microbes.
Series [2] has as its system Trypanosoma brucei brucei. Kind of series: Antitrypanosomal activity against Trypanosoma brucei brucei BS427 after 48 hrs by alamar blue assay. It counts as functional, organism-based. As to conditions: BS427, 48 h.
Series [3] can be described thus: Growth inhibition of human HEK293 cells at 50 uM after 48 hrs by alamar blue assay relative to control. As to conditions: read-out: GI. It counts as cell-based.

`CO/C(=C\c1ccccc1)C(=O)N[C@@H](Cc1c[nH]c2cc(Br)ccc12)C(=O)O` [IOTROCHAMIDES B]: the inhibition at 48 h, 70 µM in series [1] turned out to be 100%. Besides, half-maximal inhibition in series [2] (IC50) was put at 3.4 µM.
Regarding `CO/C(=C\c1ccccc1)C(=O)N[C@@H](Cc1ccc(O)cc1)C(=O)O` [IOTROCHAMIDES A], in series [3], the inhibition at 48 h, 50 µM was 85%. In series [2], this compound returned an IC50 of 4.7 µM.
